Data: patent US9796714B2, “Calcium channel agonists” (University of Pittsburgh—Of the Commonwealth System of …, priority 2013, dated 2017)
Where two headings read alike, the source gives them in different places.

Key:
[1] = target: T1, N-type Ca^2+ channel (Cav2.2) (Rattus norvegicus, UniProt Q02294); assay: N-type Ca2+ channel agonist activity, whole-cell perforated patch clamp of tail currents in tsA201 cells; format: cell-based
T1 construct: expressed in transfected cells; later also transient transfection
Procedure: tsA201 cells expressing calcium channels. […] For subsequent evaluation of effects on N-, P/Q-, or L-type channels, tsA-201 cells were transiently transfected with Cav2.2, Cav2.1, or Cav1.3, in combination with Cavβ3 and […] (Addgene, Cambridge Mass.) using FuGENE 6 (Life Technologies, Grand Island, N.Y.). All cells were maintained in DMEM supplemented with 10% fetal bovine serum. For the stable cell line expressing N-type channels, 25 μg/mL zeocin, 5 μg/mL blasticidin, and 25 μg/mL hygromycin were added as selection agents.
Whole-cell patch clamp recordings of calcium current. […] Briefly, the pipette solution consisted of […] Cs2SO4, 60 mM CsCl, 1 mM MgCl2, 10 mM 4-(2-hydroxyethyl)-1-piperazineethanesulfonic acid (HEPES) at pH 7.4. […] Patch pipettes were fabricated from borosilicate glass and pulled to a resistance of about 1 MΩ. Before each experiment, a stock solution consisting of 3 mg amphotericin-B dissolved into 50 μL anhydrous DMSO was made. […] Capacitive currents and passive membrane responses to voltage commands were subtracted from the data. Currents were amplified by an Axopatch 200B amplifier, filtered at 5 KHz, and digitized at 10 KHz for subsequent analysis using pClamp software (Axon Instruments/Molecular Devices; Sunnyvale, Calif.). […] To measure effects on calcium channel tail currents, the tail current integral was measured before and after application of a derivative, with the integral of each trace being normalized to its peak. All experiments were carried out at room temperature (22° C.). […] All other salts and chemicals were obtained from Sigma-Aldrich chemical company (St. Louis, Mo.).
(§1) Statistical Analysis. Statistical analysis was performed using either GraphPad Prism 5 (GraphPad Software, Inc.) or Origin 7 (OriginLab) software. For the dose-response analyses on Ca^2+ current, each concentration of the four different compounds was tested in 3-6 cells. […] All EC50 and IC50 values and their respective errors were determined by performing 100 iterations of a logistic function curve fit. Data are presented as mean±s.e.m. unless otherwise noted.

[2] = Solubility in saline with 1% DMSO; format: physicochemical; conditions: saline or isotonic, kinetic from dmso stock
[3] = target: T2, myosin light-chain kinase (MLCK(h)) (Homo sapiens, UniProt Q9H1R3); assay: Kinase inhibitory activity (EMD Millipore KinaseProfiler), MLCK; format: biochemical; conditions: 20 μM highest concentration used; read-out: MLCK EC50/IC50 affinities
T2 construct: purchased EMD Millipore KinaseProfiler service (Millipore UK Ltd.)
Procedure: (§2) Kinase inhibitory activity. Kinase inhibitory activities were determined using the EMD Millipore KinaseProfiler™ service (Millipore UK Ltd.). Each compound's kinase inhibitory activity was tested at three different concentrations (0.2 μM, 2 μM, and 20 μM) against five different kinases: Cdk1 cyclinB(h), cdk2 cyclinA(h), cdk5 p35(h), mitogen-activated protein kinase (MAPK1(h)) and myosin light-chain kinase (MLCK(h)).
(§3) Statistical Analysis. […] For the dose-response analyses on Ca^2+ current, each concentration of the four different compounds was tested in 3-6 cells. […] All EC50 and IC50 values and their respective errors were determined by performing 100 iterations of a logistic function curve fit.

[4] = target: T3, mitogen-activated protein kinase (MAPK1(h)) (Homo sapiens, UniProt P27361); assay: Kinase inhibitory activity (EMD Millipore KinaseProfiler), MAPK1; format: biochemical; conditions: 20 μM highest concentration used; read-out: MAPK EC50/IC50 affinities
T3 construct: purchased EMD Millipore KinaseProfiler service (Millipore UK Ltd.)
Procedure: as §2, §3

cdk2 cyclinA(h) = target: T4, cdk2 cyclinA(h) (Homo sapiens, UniProt P24941); assay: Kinase inhibitory activity (EMD Millipore KinaseProfiler), cdk2; format: biochemical
T4 construct: purchased EMD Millipore KinaseProfiler service (Millipore UK Ltd.)
Procedure: as §2, §3

cdk5 p35(h) = target: T5, cdk5 p35(h) (Homo sapiens, UniProt Q00535); assay: Kinase inhibitory activity (EMD Millipore KinaseProfiler), cdk5; format: biochemical; conditions: 20 μM highest concentration used; read-out: Cdk5 EC50/IC50 affinities
T5 construct: purchased EMD Millipore KinaseProfiler service (Millipore UK Ltd.)
Procedure: as §2, §1

Cdk1 cyclinB(h) = target: T6, Cdk1 cyclinB(h) (Homo sapiens, UniProt P06493); assay: Kinase inhibitory activity (EMD Millipore KinaseProfiler), cdk1; format: biochemical; conditions: 20 μM highest concentration used; read-out: Cdk1 EC50/IC50 affinities
T6 construct: purchased EMD Millipore KinaseProfiler service (Millipore UK Ltd.)
Procedure: as §2, §1

[5] = whole cell perforated patch clamp, deactivation (tail) currents from N-type channels, read-out: N-Type Ca^2+ Channel Activity EC50 +/− SEM
[6] = Table 3, calcium channel agonist, read-out: N-type EC50/IC50 affinities

T1 sequence (Q02294 whole entry): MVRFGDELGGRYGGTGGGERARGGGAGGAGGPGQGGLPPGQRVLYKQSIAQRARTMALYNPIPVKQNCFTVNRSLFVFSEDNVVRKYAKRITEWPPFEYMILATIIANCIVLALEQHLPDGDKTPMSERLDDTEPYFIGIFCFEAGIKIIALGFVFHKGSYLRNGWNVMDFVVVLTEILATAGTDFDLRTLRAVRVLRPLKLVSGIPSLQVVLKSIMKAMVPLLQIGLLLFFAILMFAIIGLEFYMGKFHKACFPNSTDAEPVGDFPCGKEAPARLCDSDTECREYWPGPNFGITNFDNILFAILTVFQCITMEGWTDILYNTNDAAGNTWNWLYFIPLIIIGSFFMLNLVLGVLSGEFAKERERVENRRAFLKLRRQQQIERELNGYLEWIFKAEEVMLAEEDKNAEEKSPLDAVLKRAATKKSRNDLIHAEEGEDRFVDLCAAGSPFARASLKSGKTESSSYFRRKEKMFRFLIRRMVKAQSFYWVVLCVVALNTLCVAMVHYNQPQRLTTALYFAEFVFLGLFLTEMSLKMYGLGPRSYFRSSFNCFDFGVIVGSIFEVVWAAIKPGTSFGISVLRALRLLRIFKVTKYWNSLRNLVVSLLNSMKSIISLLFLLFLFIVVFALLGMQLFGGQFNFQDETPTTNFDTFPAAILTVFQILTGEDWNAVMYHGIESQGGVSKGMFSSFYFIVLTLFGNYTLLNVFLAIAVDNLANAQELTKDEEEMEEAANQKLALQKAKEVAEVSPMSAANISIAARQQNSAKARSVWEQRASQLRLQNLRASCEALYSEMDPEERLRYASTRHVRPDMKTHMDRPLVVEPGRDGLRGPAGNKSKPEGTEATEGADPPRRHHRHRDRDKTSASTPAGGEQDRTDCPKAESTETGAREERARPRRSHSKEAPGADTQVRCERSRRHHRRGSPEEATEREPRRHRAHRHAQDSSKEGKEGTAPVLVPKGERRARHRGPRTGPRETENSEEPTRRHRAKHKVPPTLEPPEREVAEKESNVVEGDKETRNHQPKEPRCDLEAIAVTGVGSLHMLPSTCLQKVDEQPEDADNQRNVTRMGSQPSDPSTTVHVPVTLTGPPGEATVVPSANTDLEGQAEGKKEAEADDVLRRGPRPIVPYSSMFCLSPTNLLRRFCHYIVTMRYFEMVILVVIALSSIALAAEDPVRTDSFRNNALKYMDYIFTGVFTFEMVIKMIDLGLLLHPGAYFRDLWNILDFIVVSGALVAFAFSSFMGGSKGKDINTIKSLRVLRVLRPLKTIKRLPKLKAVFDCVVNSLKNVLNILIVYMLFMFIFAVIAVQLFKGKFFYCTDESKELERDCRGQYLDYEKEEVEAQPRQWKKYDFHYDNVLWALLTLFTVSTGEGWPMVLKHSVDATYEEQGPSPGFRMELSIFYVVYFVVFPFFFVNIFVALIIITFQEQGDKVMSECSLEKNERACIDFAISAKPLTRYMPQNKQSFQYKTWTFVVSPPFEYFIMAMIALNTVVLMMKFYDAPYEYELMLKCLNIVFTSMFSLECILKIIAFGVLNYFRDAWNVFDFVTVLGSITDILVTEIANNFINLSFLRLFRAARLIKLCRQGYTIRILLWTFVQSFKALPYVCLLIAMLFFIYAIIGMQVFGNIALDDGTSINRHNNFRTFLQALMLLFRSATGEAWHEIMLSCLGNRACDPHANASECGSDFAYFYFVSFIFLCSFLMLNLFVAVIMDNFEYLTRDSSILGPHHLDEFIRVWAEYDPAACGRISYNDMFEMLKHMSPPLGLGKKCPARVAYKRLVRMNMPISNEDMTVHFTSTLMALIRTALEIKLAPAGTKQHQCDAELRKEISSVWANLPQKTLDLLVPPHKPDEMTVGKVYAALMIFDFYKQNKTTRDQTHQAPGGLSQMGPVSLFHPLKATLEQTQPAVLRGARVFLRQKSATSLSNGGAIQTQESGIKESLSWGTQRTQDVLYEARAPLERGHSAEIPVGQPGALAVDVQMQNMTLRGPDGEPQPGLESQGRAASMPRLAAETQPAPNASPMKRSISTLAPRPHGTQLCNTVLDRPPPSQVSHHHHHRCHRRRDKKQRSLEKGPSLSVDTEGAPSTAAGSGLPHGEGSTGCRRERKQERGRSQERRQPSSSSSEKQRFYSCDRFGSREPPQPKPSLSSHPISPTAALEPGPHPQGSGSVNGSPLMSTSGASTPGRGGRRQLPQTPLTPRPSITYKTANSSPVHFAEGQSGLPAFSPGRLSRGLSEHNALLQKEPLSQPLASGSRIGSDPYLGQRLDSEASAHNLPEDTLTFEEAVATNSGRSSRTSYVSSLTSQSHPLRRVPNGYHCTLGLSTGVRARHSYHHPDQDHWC
T3 sequence (P27361 whole entry): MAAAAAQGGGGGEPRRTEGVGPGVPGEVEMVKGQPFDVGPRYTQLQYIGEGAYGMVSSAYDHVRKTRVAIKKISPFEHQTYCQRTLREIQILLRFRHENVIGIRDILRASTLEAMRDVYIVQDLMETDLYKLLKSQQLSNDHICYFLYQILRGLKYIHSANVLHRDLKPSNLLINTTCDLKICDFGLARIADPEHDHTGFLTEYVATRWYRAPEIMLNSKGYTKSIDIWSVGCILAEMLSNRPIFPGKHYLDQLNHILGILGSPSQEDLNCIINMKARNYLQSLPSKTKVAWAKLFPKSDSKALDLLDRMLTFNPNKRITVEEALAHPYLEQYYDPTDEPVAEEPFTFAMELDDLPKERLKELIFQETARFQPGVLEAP
T6 sequence (P06493 whole entry): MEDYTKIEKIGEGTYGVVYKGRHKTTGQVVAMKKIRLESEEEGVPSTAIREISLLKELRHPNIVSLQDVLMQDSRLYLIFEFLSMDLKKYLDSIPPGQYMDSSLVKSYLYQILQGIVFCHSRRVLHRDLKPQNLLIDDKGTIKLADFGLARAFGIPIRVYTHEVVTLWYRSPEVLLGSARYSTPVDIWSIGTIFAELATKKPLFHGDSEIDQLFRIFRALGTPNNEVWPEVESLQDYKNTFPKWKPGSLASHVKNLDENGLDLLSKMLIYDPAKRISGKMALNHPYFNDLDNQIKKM
T6 sequence (P14635 whole entry partner): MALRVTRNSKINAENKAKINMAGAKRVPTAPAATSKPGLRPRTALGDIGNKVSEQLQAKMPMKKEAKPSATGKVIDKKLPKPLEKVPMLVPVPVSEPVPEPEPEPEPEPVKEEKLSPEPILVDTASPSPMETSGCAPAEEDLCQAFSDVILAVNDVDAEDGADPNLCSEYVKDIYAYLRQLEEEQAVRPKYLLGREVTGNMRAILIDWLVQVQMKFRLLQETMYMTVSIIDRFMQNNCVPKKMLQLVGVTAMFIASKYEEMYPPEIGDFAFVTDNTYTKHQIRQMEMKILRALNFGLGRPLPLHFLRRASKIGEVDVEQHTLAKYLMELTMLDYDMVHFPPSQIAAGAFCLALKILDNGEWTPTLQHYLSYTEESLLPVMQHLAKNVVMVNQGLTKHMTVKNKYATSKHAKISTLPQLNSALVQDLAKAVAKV
T5 sequence (Q00535 whole entry): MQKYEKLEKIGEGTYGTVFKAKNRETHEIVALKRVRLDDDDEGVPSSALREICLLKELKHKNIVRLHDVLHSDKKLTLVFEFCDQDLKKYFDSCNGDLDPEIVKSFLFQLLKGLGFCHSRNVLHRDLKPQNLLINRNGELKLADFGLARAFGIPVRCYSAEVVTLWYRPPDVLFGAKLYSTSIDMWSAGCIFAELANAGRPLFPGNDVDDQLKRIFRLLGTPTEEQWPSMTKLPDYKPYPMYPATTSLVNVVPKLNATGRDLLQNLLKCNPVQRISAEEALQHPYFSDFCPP
T5 sequence (Q15078 whole entry partner): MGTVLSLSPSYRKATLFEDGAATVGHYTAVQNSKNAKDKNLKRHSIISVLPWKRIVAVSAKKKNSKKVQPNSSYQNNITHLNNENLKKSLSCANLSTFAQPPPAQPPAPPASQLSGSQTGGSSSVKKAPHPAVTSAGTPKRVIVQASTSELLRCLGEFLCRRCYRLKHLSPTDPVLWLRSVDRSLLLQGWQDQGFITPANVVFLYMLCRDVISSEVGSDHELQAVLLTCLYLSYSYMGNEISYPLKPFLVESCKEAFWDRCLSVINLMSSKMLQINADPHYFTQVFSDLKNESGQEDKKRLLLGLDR

| SMILES | EC50 [1, 5] | solubility [2] | IC50 [3] | IC50 [4] | agonist effect on the Ca^2+ channel tail currents (in words) ([1]; N-type) | increased Ca^2+ channel agonism vs. (R)-roscovitine ([1]; N-type) | EC50 [1, 6] | IC50 (cdk2 cyclinA(h); 20 μM highest concentration used, read-out: Cdk2 EC50/IC50 affinities) | EC50 (cdk2 cyclinA(h); determined in duplicate at 0.2, 2, and 20 μM, read-out: Cdk2 Activity EC50 +/− SEM) | IC50 (cdk5 p35(h)) | decreased channel activity vs 13u [1] | maximal fold increase in the tail current integral relative to control ([1]; N-type channels) | IC50 (Cdk1 cyclinB(h)) |
| --- | --- | --- | --- | --- | --- | --- | --- | --- | --- | --- | --- | --- | --- |
| CC[C@H](CO)Nc1nc(NCc2ccccc2)c2ncn(C)c2n1 [Compound 13k, (R)-2-(6-(Benzylamino)-9-methyl-9H-purin-2-ylamino)butan-1-ol] | > 70 µM | ≤ 200 µM | – | – | – | – | – | – | – | – | – | – | – |
| CC[C@H](CO)Nc1nc(NCc2ccc(C)s2)c2ncn(C(C)C)c2n1 [Compound 13u, (R)-2-(9-Isopropyl-6-((5-methylthiophen-2-yl)methylamino)-9H-purin-2-ylamino)butan-1-ol] | 11.3 ± 1.48 µM | – | 19.5 ± 8.65 µM | > 20 µM | strong agonist effect | ~4 fold | 11.3 ± 1.48 µM | – | – | – | – | – | – |
| CC[C@H](CO)Nc1nc(NCc2ccc(C)s2)c2ncn(C)c2n1 [Compound 13w, (2R)-2-[(9-Methyl-6-{[(5-methylthiophen-2-yl)methyl]amino}-9H-purin-2-yl)amino]butan-1-ol] | 30 ± 1.87 µM | – | > 20 µM | > 20 µM | strong agonist effect | – | 30 ± 1.87 µM | 3.04 ± 0.17 µM | 3 µM | 2.81 ± 0.91 µM | ca. 3 fold | ~13 fold | 10.5 ± 2.77 µM |
